Results published in patent US11607422B2, “Uttroside B and derivatives thereof as therapeutics for hepatocellular carcinoma” (Rajiv Gandhi Centre for Biotechnology, an Autonomous …, priority 2016, dated 2023).

How the values were obtained:
MDA-MB-231 = assay: MTT cell viability assay in MDA-MB-231 cells; type: cell-based; conditions: 72 h
Protocol: (§1) FIG. 2A is a graph comparison of IC50 of Uttroside B in a panel of cancer cells of different origin. The cancer cell lines HeLa, A375, HepG2, MDA-MB-231, HL 60, A549 and HCT116 were treated with Uttroside B as indicated, incubated for 72 h and the cell viability was assessed by MTT assay. FIG. 2B is a graph showing dose dependent effect of Uttroside B in the liver cancer cell lines and in normal immortalized hepatocytes. The liver cancer cell lines HepG2, Hep3B, SKHEP-1, Huh-7 and normal hepatocytes (Chang liver), were treated with Uttroside B incubated for 72 h and the cell viability was assessed by MTT assay. FIG. 2C is a graph comparison of IC50 of Uttroside B with sorafenib. HepG2 cells were treated with Uttroside B as indicated, incubated for 72 h, and the cell viability was assessed by MTT assay. […] The clones developed were counted and plotted as a graph. Colony containing more than four cells was counted as one clone. […]
(§2) MTT [3-(4,5-dimethylthiazole-2-yl)-2,5-diphenyltetrazolium bromide] assay is a standard colorimetric assay, suitable for analyzing proliferation, viability, and cytotoxicity. […] After overnight incubation, cells were treated with different concentrations of organic extracts (25-250 μg/ml) of S. nigrum and the isolated compound Uttroside B (250-1250 nM) for 72 h and cytotoxicity was measured. […]

HL60 = assay: MTT cell viability assay in HL60 cells; type: cell-based; conditions: 72 h
Protocol: as §1, §2

Akt in HepG2 cells = assay: Western blot of Akt phosphorylation; type: cell-based, human; conditions: HepG2, no basal activation of Akt
Protocol: FIGS. 4A-4E are images showing Uttroside B inhibits MAPK and mTOR signaling, some of the crucial survival signals in liver cancer. […] HepG2 cells were treated with Uttroside B for different time intervals (0-240 min) and the whole cell lysate was resolved on a 10% gel and immunoblotted against phospho-ERK1/2 and phospho-Akt antibodies. Taxol was used as a positive control. […] HepG2 cells were treated with Uttroside B at different time intervals and the whole cell lysate was resolved on an 8% gel and immunoblotted against phospho-mTOR (2448) and phospho-mTOR (2481) antibodies.
Western blot analysis. Approximately 0.5×10^6 cells were grown on 60 mm culture plates and exposed to drugs as indicated for the desired time. The cells were then scraped out, washed in ice cold 1× PBS and pelleted down at 13000 rpm for 2 min. […]

Swiss albino mice = assay: Chronic toxicity study (3 months); type: in vivo
Protocol: Swiss albino mice were randomly divided into 2 groups of 6 animals each and were allowed to acclimatize for a week. Group I received vehicle and Group II received 10 mg/Kg body weight of Uttroside B. The compounds were given as intraperitonial injection on alternate days, thrice in a week, for 3 months. The animals were observed frequently during this period after which, the animals were euthanized in a CO2 chamber. The blood serum was collected for analyzing biochemical parameters of liver function, the abnormal values of which are indicative of hepatotoxicity. The liver was fixed in 10% buffered formalin and the thin cryostat sections were stained with haematoxylin and eosin for histopathological evaluation.^9

## C[C@H](CC[C@@]1(O)O[C@H]2C[C@H]3[C@@H]4CC[C@H]5C[C@@H](O[C@@H]6O[C@H](CO)[C@H](O[C@@H]7O[C@H](CO)[C@@H](O)[C@H](O[C@@H]8OC[C@@H](O)[C@H](O)[C@H]8O)[C@H]7O[C@@H]7O[C@H](CO)[C@@H](O)[C@H](O)[C@H]7O)[C@H](O)[C@H]6O)CC[C@]5(C)[C@H]4CC[C@]3(C)[C@H]2[C@@H]1C)CO[C@@H]1O[C@H](CO)[C@@H](O)[C@H](O)[C@H]1O [Uttroside B]
MDA-MB-231
  IC50: 1.6 µM
HL60
  IC50: 2.5 µM
Akt in HepG2 cells
  activation of Akt: no significant role in activating Akt pathway
Swiss albino mice; 10 mg/kg
  histopathological analysis of liver tissue, chronic: did not manifest any morphological change characteristic of toxicity
Swiss albino mice; 10 mg/kg i.p. thrice weekly, 3 months
  total and differential WBC count, serum AST, ALT, ALP and BUN: no significant difference in any of these parameters from their normal range of values
